The term EC50 denotes the concentration at which the effect is half-maximal. The low end stands for greater potency, the high end for weaker potency. A word on the IC50: it is the point on the concentration scale where inhibition reaches its midpoint. A lower IC50 goes with inhibition by little substance.

For data set [1], the system named is genotype 1b HCV replicon in Huh-7 cells. Description: HCV replicon luciferase assay. It counts as cell-based, HCV genotype 1b (human hepatocyte derived cell line Huh-7). Particulars: Hepatitis C virus, Huh-7, 72 h, Renilla luciferase, 3 days incubation. How it is done:
The cell lines used to evaluate compounds consist of a human hepatocyte derived cell line (Huh-7) that constitutively expresses a genotype 1b HCV replicon containing a Renilla luciferase reporter gene. These cells were maintained in Dulbecco's modified Eagle medium (DMEM) containing 10% FBS, 100 U/mL penicillin/streptomycin and 1.0 mg/mL G418.
To evaluate compound efficacy, titrated compounds were transferred to sterile 384-well tissue culture treated plates, and the plates were seeded with HCV replicon cells (50 μL at a density of 2.4×10^3 cells/well) in DMEM containing 4% FBS (final DMSO concentration at 0.5%). After 3 days incubation at 37° C., cells were analyzed for Renilla Luciferase activity using the EnduRen substrate (Promega cat #E6485) according to the manufacturer's directions. Briefly, the EnduRen substrate was diluted in DMEM and then added to the plates to a final concentration of 7.5 μM. The plates were incubated for at least 1 h at 37° C. then read on a Viewlux Imager (PerkinElmer) using a luminescence program. The 50% effective concentration (EC50) was calculated using the four-parameter logistic formula noted above.
For orientation: A replicon is a self-replicating genome or part of one, used to study replication in cells.

Data set [2] concerns the target T1, NS5B protein of HCV, genotype 1b (Hepatitis C virus genotype 1b, UniProt Q9WMX2).
T1 construct: The protein was expressed with an 18 amino acid C-terminal truncation to enhance the solubility; made in house; host or cells: E. coli BL21(DE3)
Description: HCV NS5B RdRp enzyme assay. It counts as biochemical. Particulars: 7 nM NS5B enzyme, 4 hours at 30° C. The protocol:
The cDNA encoding the NS5B protein of HCV, genotype 1b, was cloned into the pET21a expression vector. The protein was expressed with an 18 amino acid C-terminal truncation to enhance the solubility. The E. coli competent cell line BL21(DE3) was used for expression of the protein. Cultures were grown at 37° C. for ˜4 hours until the cultures reached an optical density of 2.0 at 600 nm. The cultures were cooled to 20° C. and induced with 1 mM IPTG. Fresh ampicillin was added to a final concentration of 50 μg/mL and the cells were grown overnight at 20° C.
Cell pellets (3 L) were lysed for purification to yield 15-24 mgs of purified NS5B. […]
Reactions were allowed to proceed for 4 hours at 30° C. and terminated by the addition of 50 mM EDTA (10 μL). After incubating for at least 15 minutes, plates were read on an Amersham LEADseeker multimodality imaging system.
IC50 values for compounds were determined using ten different [I]. IC50 values were calculated from the inhibition using the four-parameter logistic formula y=A+((B−A)/(1+((C/x)^D))), where A and B denote minimal and maximal % inhibition, respectively, C is the IC50, D is hill slope and x represents compound concentration.

The subject of another data set is HCV. The note with it: extended dosing of the combination regimens with interferon and ribavirin; cited from earlier work.

Molecules are shown by their SMILES.

T1 sequence (Q9WMX2 2420-2992): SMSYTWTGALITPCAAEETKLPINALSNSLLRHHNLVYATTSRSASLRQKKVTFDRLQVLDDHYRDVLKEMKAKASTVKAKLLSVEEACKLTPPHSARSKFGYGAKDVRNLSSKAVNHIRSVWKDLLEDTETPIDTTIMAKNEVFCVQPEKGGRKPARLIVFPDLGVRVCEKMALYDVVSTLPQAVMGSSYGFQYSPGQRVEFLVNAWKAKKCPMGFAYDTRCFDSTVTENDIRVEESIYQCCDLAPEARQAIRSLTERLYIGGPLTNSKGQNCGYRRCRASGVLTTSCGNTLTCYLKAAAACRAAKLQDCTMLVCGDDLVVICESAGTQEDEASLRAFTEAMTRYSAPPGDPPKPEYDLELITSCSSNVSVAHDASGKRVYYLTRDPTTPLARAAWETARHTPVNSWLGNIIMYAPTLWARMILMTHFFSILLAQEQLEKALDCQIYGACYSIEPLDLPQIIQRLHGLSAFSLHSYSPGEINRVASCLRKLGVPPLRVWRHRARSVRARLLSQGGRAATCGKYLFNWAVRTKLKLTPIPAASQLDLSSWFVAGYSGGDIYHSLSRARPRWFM

In data set [1], `COc1cc(C)c(-c2ccc3oc(-c4ccc(F)cc4)c(-c4ncc[nH]4)c3c2F)cc1C(=O)NC1(c2ncccn2)CC1` [Example 1, 5-(4-fluoro-2-(4-fluorophenyl)-3-(1H-imidazol-2-yl)benzofuran-5-yl)-2-methoxy-4-methyl-N-(1-(pyrimidin-2-yl)cyclopropyl)benzamide] had an EC50 of 30 nM. The same molecule returned a 50% inhibitory concentration (IC50) in data set [2] of 30 nM.
Turning to `CNC(=O)c1c(-c2ccc(F)cc2)oc2cc(N(CCO)S(C)(=O)=O)c(C3CC3)cc12` [HCV-796], in the data set on HCV, the “toxicity during extended dosing” value is on record as “hepatic toxicity”.
`CCN(c1cc2oc(-c3ccc(F)cc3)c(-c3ncc[nH]3)c2cc1-c1ccc(OC)c(C(=O)NC2(c3ncccn3)CC2)c1)S(C)(=O)=O` [Example 3, 5-(6-(N-ethylmethylsulfonamido)-2-(4-fluorophenyl)-3-(1H-imidazol-2-yl)benzofuran-5-yl)-2-methoxy-N-(1-(pyrimidin-2-yl)cyclopropyl)benzamide] came in with an EC50 in data set [1] of 9 nM.
Same read-out and setting: in the case of `CCNc1cc2oc(-c3ccc(F)cc3)c(-c3ncc[nH]3)c2cc1-c1ccc(OC)c(C(=O)NC2(c3ncccn3)CC2)c1` [Example 2, 5-(6-(ethylamino)-2-(4-fluorophenyl)-3-(1H-imidazol-2-yl)benzofuran-5-yl)-2-methoxy-N-(1-(pyrimidin-2-yl)cyclopropyl)benzamide] it was 7.2 nM.

The record behind these values is patent US9303020B2, “Compounds for the treatment of hepatitis C” (Bristol-Myers Squibb Company, priority 2012, dated 2016).
